# “Also recorded” adds a separate entry of the source.
# How the values were obtained:
# [1] = tested on: iCasp9+ cells; details: cited from earlier work
# [2] = tested on: mCherry fluorescent reporter in Jurkat T cells; assay: hhTAD transcription activators, mCherry reporter in Jurkat T cells; type: cell-based; details: 1 uM GZV or 4-OHT, 72h, compared with p65 and VPR counterparts
# Excerpt: FIG. 6A is a schematic and bar graph showing that the IWS1 TIMs domain increases transcriptional activation in an NS3-comprising synTF in the presence of grazoprevir. FIG. 6B is a schematic and bar graph showing that the IWS1 TIMs domain increases transcriptional activation in an ERT2-comprising synTF in the presence of 4OHT.
# The humanized hybrid transcription activator domain (see e.g., SEQ ID NOs: 15-16) when integrated into small-molecule inducible transcriptional activation systems is able to robustly and strongly induce transgene expression in mammalian cells. The humanized hybrid transcription activation domain (hhTAD) was attached to an artificial zinc finger proteins (see e.g., U.S. Pat. No. 10,138,493 B2 and US Patent Publication No. 2020/0377564 A1; the contents of each of which are incorporated herein by reference in their entirety) to either a NS3 or ERT2 domain (see e.g., FIG. 5A). To report transcriptional activation, described herein is a […] mCherry fluorescent reporter (see e.g., FIG. 5B). […]
# To evaluate the strength of this hhTAD, Jurkat T cells were generated stably expressing both the transcription activator(s) modified with the hhTAD and fluorescent reporter. […] Reporter cells with were treated 1 uM GZV or 4-OHT, and mCherry reporter fluorescence was measured at 72h (see e.g., FIG. 6A-6B).
# [3] = tested on: mCherry reporter in Jurkat T cells; assay: Loss of function TIMs mutants in GZV-synZiFTR2.0; type: cell-based; details: GZV induction, 3 days, compared to GZV-synZiFTR2.0 carrying WT TIMs
# Excerpt: FIG. 4A-4B. IWS1 TIMs mechanism of action. (FIG. 4A) IWS1 mutants affecting TIMs employed in this study. WT TIMs domain in GZV-synZiFTR2.0 were replaced by TIMs structural mutant variants (see e.g., SEQ ID NOs: 5-14). The amino acid sequence of the TIMs domain is shown (see e.g., SEQ ID NO: 5). The boxes highlight each of the 3 TIM amino acid sequences (see e.g., SEQ ID NOs: 6-8) and the mutants respectively (see e.g., SEQ ID NOs: 12-14). Different TIM mutations caused loss of interactions with various transcription elongation factors (Transcription factor IIS (TFIIS) and Elongin A (EloA) for the TIM1 mutant; Protein Phosphatase 1 Nuclear Targeting Subunit (PP1-PNUTs) for the TIM2 mutant; lens epithelium-derived growth factor (LEDGF) and H3K36me2/3 binding protein HDGFL2 (HRP2) for the TIM3 mutant). Figure discloses SEQ ID NOS 5-6, 12, 6, 6-7, 7, 13, 7-8, 8, 8, and 14, respectively, in order of appearance. (FIG. 4B) Evaluating loss of function TIMs mutations. GZV-synZiFTR2.04 distinct mutant variants of TIMs were expressed in Jurkat T cells. The circuit outputs were compared to GZV-synZiFTR2.0 carrying WT TIMs. Jurkat T cells were co-transduced with reporter, synZiFTR2.0 and synZiFTR expression lentiviral vectors in an equal ratio. mCherry fluorescence was measured by flow cytometry 3 days after induction by small molecules at the indicated concentrations. Bars represent mean values for three measurements±SD. Statistics represent two-tailed Student's t test; ****P<0.0001.
# The TIMs domain contains a series of three unique TIMs that selectively interact with different TND-containing factors. TIM1 interacts with Transcription Factor IIS (TFIIS) and Elongin A (EloA), TIM2 is recognized by the PP1-PNUTS phosphatase, and finally the H3K36me3 readers, lens epithelium-derived growth factor (LEDGF), and H3K36me2/3 binding protein HDGFL2 (HRP2) bind to TIM3. Here, it was investigated which direct interactions between each TIMs and their protein partner is involved in the enhanced transcriptional output by synZiFTR2.0s. […]
# [4] = among 2A peptides; cited from earlier work
compound,measurement,setting,value
CC[C@H](C(=O)N1CCCC[C@H]1C(=O)O[C@H](CCc1ccc(OC)c(OC)c1)c1cccc(OCC(=O)NCCNC(=O)COc2cccc([C@@H](CCc3ccc(OC)c(OC)c3)OC(=O)[C@@H]3CCCCN3C(=O)[C@@H](CC)c3cc(OC)c(OC)c(OC)c3)c2)c1)c1cc(OC)c(OC)c(OC)c1 [AP1903],GvHD outcome after AP1903,[1]; patients receiving iCasp9 T cells,complete reversal of GvHD; also recorded: Two of the four patients
same,reduction in iCasp9+ cells,"[1]; phase I trial, four patients with acute GvHD, within 30 minutes of administration",90%
"IWS1 TIMs domain: amino acids 449-492 of IWS1, SEQ ID NO: 5, 44 aa; transcriptional effector domain",mCherry reporter fluorescence,[2],increases their transcriptional activation
"M1: TIM1 mutant, L458A and F459A, SEQ ID NO: 9, in GZV-synZiFTR2.0 (SDKKNEEKDAAGSDSESGNEEENLIADIFGESGDEEEEEFTGFN)",mCherry fluorescence output,[3],did not affect GZV-synZiFTR2.0 output
"M2: TIM2 mutant, I476A and F477A, SEQ ID NO: 10, in GZV-synZiFTR2.0 (SDKKNEEKDLFGSDSESGNEEENLIADAAGESGDEEEEEFTGFN)",mCherry fluorescence output,[3],ablated the mCherry fluorescence output by TIMs-p65 fusion
"M3: TIM3 mutant, F488A and F491A, SEQ ID NO: 11, in GZV-synZiFTR2.0 (SDKKNEEKDLFGSDSESGNEEENLIADIFGESGDEEEEEATGAN)",mCherry fluorescence output,[3],did not affect GZV-synZiFTR2.0 output
"P2A: 2A self-cleaving peptide derived from porcine teschovirus-1 2A, SEQ ID NO: 341 (GSGATNFSLLKQAGDVEENPGP; VARIANT 1..3 May be absent)",efficiency of self-cleaving,[4],most efficient
